Measured values reported in patent US20070032521A1, “Use of c-kit inhibitors for treating type II diabetes” (AB Science, priority 2003, published 2007).

Assays:
[1] = biological target: T1, purified intracellular domain of c-kit (Homo sapiens, UniProt P10721); test: in vitro TK inhibition assay (ELISA, phosphorylation of tyrosine containing target peptide); format: biochemical; details: purified intracellular domain of c-kit expressed in baculovirus
T1 construct: purified intracellular domain of c-kit expressed in baculovirus; made in house
Experimental: in vitro TK Inhibition Assays
Experiments were performed using purified intracellular domain of c-kit expressed in baculovirus. Estimation of the kinase activity was assessed by the phosphoiylation of tyrosine containing target peptide estimated by established ELISA assay.

male db/db mice = test: Effect of c-kit inhibitors on serum glucose, insulin, triglycerides, cholesterol and NEFA levels in db/db mice; format: in vivo, mouse
From the text: Effect of different c-kit inhibitors on serum glucose, insulin, triglycerides, cholesterol and non esterified fatty acids levels in db/db mice
The objective of this study is to assess the effects of different c-kit inhibitors on serum glucose, insulin, triglycerides, cholesterol and non esterified fatty acids levels in male db/db mice dosed orally, once-a-day, for 5 days.
30 male 9/11 weeks old C57BL/Ks J Rj-db (db/db) mice (Janvier, France or Harlan, France), weighing in the target range of 30 to 50 g, will be included in this study.
One to three days before beginning the treatments (T0), mice will be weighed and blood samples will be collected through the retro-orbital plexus under isoflurane anesthesia. Blood samples will be kept at room temperature for 5 to 10 min to form a spontaneous clot, then put in ice until they are centrifuged at 3500×g for 10-15 min at 4° C. An aliquot of serum will be used for measuring glucose levels.
Six groups of 5 mice will be formed with respect to homogeneous glycemia values by using a randomization table. Animal showing glycemia below 20 mM will be excluded from the study.
From T1 to T5, the mice will be weighed and dosed once daily for 5 consecutive days at constant time.
At T5, 2 hours after the last administration, blood samples will be collected through the retro-orbital plexus under isoflurane anesthesia. Blood samples will be kept at room temperature for 5 to 10 min to form a spontaneous clot, then put in ice until they are centrifuged at 3500×g for 10 min at 4° C. Serum will be aliquoted and frozen at −20° C. until use. After blood collection, the mice will be euthanized by cervical dislocation.
Serum glucose and triglycerides levels will be determined using the Synchron C×4 analyzer. Serum non esterified fatty acids levels will be measured manually using a colorimetric method, and insulin levels determined by ELISA.
The results will be expressed as mean±SEM: • Glucose levels (mM) at T5 • Insulin levels (nM) at T5 • Triglycerides levels (mM) at T5 • Non esterified fatty acids levels (mM) at T5
For each parameter, a % of effect will be calculated according to following formula: ((vehicle group−test group)/vehicle group)*100
Statistical analysis will consist in a one-way analysis of variance followed by multiple comparisons versus the vehicle group (Dunnett's test). In case the equal variance test fails, a Kruskall-Wallis one-way analysis of variance on ranks will be proposed. A difference will be considered significant for p<0.05.

[2] = as compared to vehicle, 10 mg/kg p.o. for 5 days
[3] = serum, male db/db mice, 10 mg/kg p.o. once daily for 5 days, T5, mean ± SEM, n = 5

T1 sequence (P10721 546-976 limits assumed): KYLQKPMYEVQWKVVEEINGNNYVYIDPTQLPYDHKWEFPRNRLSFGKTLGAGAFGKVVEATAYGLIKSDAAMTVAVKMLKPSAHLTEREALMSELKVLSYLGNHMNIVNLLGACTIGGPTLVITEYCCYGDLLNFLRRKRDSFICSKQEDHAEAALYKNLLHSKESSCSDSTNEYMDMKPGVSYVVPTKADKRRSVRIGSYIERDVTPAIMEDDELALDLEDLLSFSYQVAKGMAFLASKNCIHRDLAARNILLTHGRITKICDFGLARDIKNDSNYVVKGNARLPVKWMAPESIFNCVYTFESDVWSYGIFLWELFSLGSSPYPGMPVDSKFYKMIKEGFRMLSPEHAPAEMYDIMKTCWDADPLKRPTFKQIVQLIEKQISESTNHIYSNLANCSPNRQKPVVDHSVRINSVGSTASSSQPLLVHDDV

Compound	IC50 [1] [µM]	melting point [°C]	other results
Cc1ccc(NC(=O)N(C(=O)NC2CCCCC2)C2CCCCC2)cc1Nc1nc(-c2cccnc2)cs1 [Compound 016, 1-Cyclohexyl-1-(N-Cyclohexyl-formamide)-3-[4-methyl-3-(4-pyridin-3-yl-thiazol-2-ylamino)-phenyl]-urea]	< 10	–	–
Cc1ccc(NC(=O)c2ccc(NS(=O)(=O)c3cccs3)cc2)cc1Nc1nc(-c2cccnc2)cs1 [Compound 044, N-[4Methyl-3-(4-pyridin-3-yl-thiazol-2-ylamino)-phenyl]-4-(thiophene-2-sulfonylamino)-benzamide]	–	230 to 233	–
Cc1ccc(NC(=O)c2ccc(-c3ccncc3)cc2)cc1Nc1nc(-c2cccnc2)cs1 [Compound 046, N-[4-Methyl-3-(4-pyridin-3-yl-thiazol-2-ylamino)-phenyl]-4-pyridin-4-yl-benzamide]	–	254 to 256	–
Cc1ccc(NC(=O)c2cccc(OCCN3CCOCC3)c2)cc1Nc1nc(-c2cccnc2)cs1 [Compound 052]	< 10	75 to 80	–
Cc1ccc(NC(=O)c2ccc(CNC(=O)OC(C)(C)C)cc2)cc1Nc1nc(-c2cccnc2)cs1 [Compound 073, {4-[4-Methyl-3-(4-pyridin-3-yl-thiazol-2-ylamino)-phenylcarbamoyl]-benzyl}-carbamic acid tert-butyl ester]	< 10	–	–
Cc1ccc(NC(=O)c2ccc(CN3CCN(C)CC3)c(C(F)(F)F)c2)cc1Nc1nc(-c2cccnc2)cs1 [Compound 075]	< 10	118 to 120	–
Cc1ccc(NC(=O)c2ccc(CN3CCN(C)CC3)c(Br)c2)cc1Nc1nc(-c2cccnc2)cs1 [Compound 078, 3-Bromo-4-(4-methyl-piperazin-1-ylmethyl)-N-[4-methyl-3-(4-pyridin-3-yl-thiazol-2-ylamino)-phenyl]-benzamide]	< 10	–	–
Cc1ccc(NC(=O)c2ccc(C(C)N3CCN(C)CC3)cc2)cc1Nc1nc(-c2cccnc2)cs1 (centres unmarked) [Compound 082]	< 10	153 to 155	–
Cc1cncc(-c2csc(Nc3cc(NC(=O)c4ccc(CN5CCN(C)CC5)cc4)ccc3C)n2)c1 [Compound 084, N-{4-Methyl-3-[4-(5-methyl-pyridin-3-yl)-thiazol-2-ylamino]-phenyl}-4-(4-methyl-piperazin-1-ylmethyl)-benzamide]	< 10	–	–
Cc1ccc(NC(=O)c2cc(Br)c(CNCCCN3CCOCC3)c(Br)c2)cc1Nc1nc(-c2cccnc2)cs1 [Compound 087, 3,5-Dibromo-N-[4-methyl-3-(4-pyridin-3-yl-thiazol-2-ylamino)-phenyl]-4-[(3-morpholin-4-yl-propylamino)-methyl]-benzamide]	< 10	–	–
Cc1ccc(NC(=O)c2cccc(N3CCN(C)CC3)c2)cc1Nc1nc(-c2cccnc2)cs1 [Compound 089, 3-(4-Methyl-piperazin-1-yl)-N-[4-methyl-3-(4-pyridin-3-yl-thiazol-2-ylamino)-phenyl]-benzamide]	< 10	–	–
Cc1ccc(NC(=O)CCCN2CCOCC2)cc1Nc1nc(-c2cccnc2)cs1 [Compound 096, N-[4-Methyl-3-(4-pyridin-3-yl-thiazol-2-ylamino)-phenyl]-4-morpholin-4-yl-butyramide]	< 10	116 to 120	–
CN(CCOc1ccc(CC2SC(=O)NC2=O)cc1)c1ccccn1 (centres unmarked) [Rosiglitazone, rosiglitazone]	–	–	Cholesterol Effect (%) (male db/db mice; [2]): 19%; Glucose Effect (%) (male db/db mice; [2]): 59%; Insulin Effect (%) (male db/db mice; [2]): 77%; NEFA Effect (%) (male db/db mice; [2]): 63%; Triglycerides Effect (%) (male db/db mice; [2]): 71%; NEFA (male db/db mice; serum non esterified fatty acids, male db/db mice, 10 mg/kg p.o. once daily for 5 days, T5, mean ± SEM, n = 5): 0.31 ± 0.061 mM; Cholesterol (male db/db mice; [3]): 2.74 ± 0.47 mM; Glucose (male db/db mice; [3]): 11.25 ± 2.65 mM; Insulin (male db/db mice; [3]): 0.82 ± 0.27 nM; Triglycerides (male db/db mice; [3]): 0.46 ± 0.10 mM

The next lines start with results.

IC50 [1] [µM]	melting point [°C]	Compound	other results
< 10	–	Cc1ccc(NC(=O)Nc2ccc(F)cc2)cc1Nc1nc(-c2cccnc2)cs1 [Compound 012, 1-(4-Fluoro-phenyl)-3-[4-methyl-3-(4-pyridin-3-yl-thiazol-2-ylamino)-phenyl]-urea]	–
< 10	–	Cc1ccc(NC(=O)Nc2ccc(OC(F)F)cc2)cc1Nc1nc(-c2cccnc2)cs1 [Compound 021, 1-(4-Difluoromethoxy-phenyl)-3-[4-methyl-3-(4-pyridin-3-yl-thiazol-2-ylamino)-phenyl]-urea]	–
< 10	210 to 215	Cc1ccc(NC(=O)Nc2cccc(F)c2)cc1Nc1nc(-c2cccnc2)cs1 [Compound 025, 1-(3-Fluoro-phenyl)-3-[4-methyl-3-(4-pyridin-3-yl-thiazol-2-ylamino)-phenyl]-urea]	–
< 10	210 to 215	Cc1ccc(NC(=O)Nc2ccc(C)c(Nc3nc(-c4cccnc4)cs3)c2)cc1 [Compound 026, 1-[4Methyl-3-(4-pyridin-3-yl-thiazol-2-ylamino)-phenyl]-3-p-tolyl-urea]	–
–	184 to 186	Cc1ccc(NC(=O)c2cccc(F)c2)cc1Nc1nc(-c2cccnc2)cs1 [Compound 045, 3-Fluoro-N-[4-methyl-3-(4-pyridin-3-yl-thiazol-2-ylamino)-phenyl]-benzamide]	–
< 10	–	Cc1ccc(NC(=O)c2ccc(N(C)C)cc2)cc1Nc1nc(-c2cccnc2)cs1 [Compound 047, 4-Dimethylamino-N-[4-methyl-3-(4-pyridin-3-yl-thiazol-2-ylamino)-phenyl]-benzamide]	–
< 10	103 to 106	Cc1ccc(F)c(C(=O)Nc2ccc(C)c(Nc3nc(-c4cccnc4)cs3)c2)c1 [Compound 048, 2-Fluoro-5-methyl-N-[4-methyl-3-(4-pyridin-3-yl-thiazol-2-ylamino)-phenyl]-benzamide]	–
< 10	145 to 150	Cc1ccc(NC(=O)c2ccc(C(C)(C)C)cc2)cc1Nc1nc(-c2cccnc2)cs1 [Compound 049, 4-tert-Butyl-N-[4-methyl-3-(4-pyridin-3-yl-thiazol-2-ylamino)-phenyl]-benzamide]	–
< 10	130 to 132	Cc1ccc(NC(=O)c2ccc3c(c2)OCO3)cc1Nc1nc(-c2cccnc2)cs1 [Compound 051]	–
< 10	197 to 198	Cc1ccc(NC(=O)c2cccc(N(C)C)c2)cc1Nc1nc(-c2cccnc2)cs1 [Compound 088, 3-Dimethylamino-N-[4-methyl-3-(4-pyridin-3-yl-thiazol-2-ylamino)-phenyl]-benzamide]	–
< 10	247 to 248	Cc1ccc(NC(=O)c2cccc(N3CCOCC3)c2)cc1Nc1nc(-c2cccnc2)cs1 [Compound 090, N-[4-Methyl-3-(4-pyridin-3-yl-thiazol-2-ylamino)-phenyl]-3-morpholin-4-yl-benzamide]	–
